Results as given in patent US20120189673A1, “POLYPEPTIDES AND USES THEREOF” (priority 2009, published 2012).
Entries after “also recorded” stand apart in the source; their conditions may differ.

Columns and labels:
E. coli = experiment: FACS binding of TAMRA labeled peptide to E. coli; design: species or system Escherichia coli; conditions: 3 μM TAMRA labeled peptide in human plasma
Protocol: Flow cytometry analysis—Fifty μl of bacteria (1-2×10^6 cfu) were incubated with 450 μl of human plasma either alone or supplemented with GGL27 (at 3 μM). Samples were incubated for 30 min or 1 h at 37° C., divided into two equal parts, centrifuged, washed with PBS, and resuspended in 100 μl PBS with rabbit polyclonal antibodies against either LGE27 (25), a C-terminal epitope of human C3a, or rabbit polyclonal antibodies against C1q (both at 1:100). The mixtures were subsequently incubated for 1 h at room temperature. Bacteria were pelleted and washed twice with PBS, incubated in 100 μl PBS with goat anti rabbit IgG FITC-labeled antibodies (1:500, Sigma) for 30 min at room temperature and washed twice with PBS. In another experiment bacteria were incubated for 1 h in citrate plasma together with 3 μM TAMRA-labeled GGL27 peptide, then pelleted and washed twice with PBS. Flow cytometry analysis (Becton-Dickinson, Franklin Lakes, N.J.) was performed using a FACS-Calibur flow cytometry system equipped with a 15 mW argon laser turned a 488 nm. The bacterial population was selected by gating with appropriate settings of forward scatter (FSC) and sideward scatter (SSC).

[1] = test system: E. coli LPS shock in C57BL/6 mice; experiment: LPS model in vivo (LPS-induced shock): survival, cytokines, lungs; design: species or system mouse
Protocol: Histochemistry—For immunostaining, wound biopsies were fixed in 10% formalin, rehydrated and embedded in paraffin. Sections of 5 μm thickness were placed on poly-lysine coated glass slides, deparaffinized in xylene and rehydrated in graded alcohols. The slides were then treated with Dako antigen retrieval solution (Dako) for 40 min at 97° C., and incubated for 24 h at room temperature in a 1:50 dilution of polyclonal antibodies against TFPI (Sigma-Aldrich, in TBS with 1% BSA, 5% goat serum, 0.05% Tween 20). After three 20 min washes in TBS with 0.05% Tween 20, the sections were incubated with alkaline phosphatase conjugated secondary goat anti-rabbit IgG (Dako) diluted 1:1000 in the same buffer as the primary antibody and incubated for another 24 hours, followed by three 20 min washes. Sections were developed with Vulcan Fast Red chromogen (Biocare Medical, Concord, Calif.) and the slides were counterstained with Harris Hematoxylin (EM Science, Gibbstown, N.J.). For histological evaluation of lungs derived from the in vivo LPS-models in mice, tissues were embedded as above, sectioned and stained with hematoxylin and eosin by routine procedures (Histocenter, Gothenburg, Sweden).
LPS model in vivo—Male C57BL/6 mice (8-10 weeks, 22+/−5 g), were injected intraperitoneally with 18 mg E. coli 0111:B4 LPS (Sigma) per kg of body weight. Thirty minutes after LPS injection, 0.5 mg GGL27, GGL27(S), DSE25 or buffer alone was injected intraperitoneally into the mice. Survival and status was followed during seven days. For blood collection and histochemistry, mice were sacrificed 20 h after LPS challenge, and lungs were removed and fixed. These experiments were approved by the Laboratory Animal Ethics Committee of Malmo/Lund.
Cytokine assay—The cytokines IL-6, IL-10, MCP-1, INF-γ, and TNF-α were measured in plasma from mice subjected to LPS (with or without peptide treatment) using the Cytometric bead array; mouse inflammation kit (Becton Dickinson AB) according to the manufacturer's instructions.

RAW 264.7 macrophages = experiment: NO production in RAW 264.7 macrophages stimulated with LPS or other microbial products (Griess reaction); format: cell-based, mouse
Protocol: Effects of various microbial products on macrophages in vitro and anti-inflammatory effects by various peptides of HCII and TFPI. 3.5×10^5 cells were seeded in 96-well tissue culture plates (Nunc, 167008) in phenol red-free DMEM (Gibco) supplemented with 10% FBS and antibiotics. Following 6 hours of incubation to permit adherence, cells were stimulated with 10 ng/mL E. coli (0111:B4) LPS (Sigma), lipoteichoic acid, peptioglycan, or zymosan, with and without peptides at the indicated doses (se figure legends and figures). The levels of NO in culture supernatants were determined after 24 hours from stimulation using the Griess reaction. Briefly, nitrite, a stable product of NO degradation, was measured by mixing 50 μl of culture supernatants with the same volume of Griess reagent (Sigma, G4410) and reading absorbance at 550 nm after 15 min. Phenol-red free DMEM with FBS and antibiotics were used as a blank. A standard curve was prepared using 0-80 μM sodium nitrite solutions in ddH20.
LPS effects on macrophages in vitro—[…] cells were seeded in 96-well tissue culture plates (Nunc, 167008) in phenol red-free DMEM (Gibco) supplemented with 10% FBS containing 1% Anti-Anti (Invitrogen). Following 20 hours of incubation to permit adherence, cells were washed and stimulated with 10 ng/ml E. coli (0111:B4) or P. aeruginosa LPS (Sigma), with and without the peptides GGL27, GGL27(S), and DSE25 of various doses. The levels of NO in culture supernatants were determined after 24 hours from stimulation using the Griess reaction (27). Briefly, nitrite, a stable product of NO degradation, was measured by mixing 50 μl of culture supernatants with the same volume of Griess reagent (Sigma, G4410) and reading absorbance at 550 nm after 15 min. Phenol-red free DMEM with FBS and antibiotics were used as a blank. A standard curve was prepared using 0-80 μM sodium nitrite solutions in ddH20.

E. coli infected mice = experiment: Animal infection model, E. coli; format: in vivo, mouse; conditions: E. coli i.p.; GGL27 200 μg i.p. after 30 min; P<0.001
Protocol: Animal infection model—Animals were housed under standard conditions of light and temperature and had free access to standard laboratory chow and water. P. aeruginosa 15159 bacteria were grown to logarithmic phase (OD620˜0.5), harvested, washed in PBS, diluted in the same buffer to 2×10^8 cfu/ml, and kept on ice until injection. Hundred microliter of the bacterial suspension was injected intraperitoneally (i.p.) into female Balb/c mice. Sixty minutes after the bacterial injection, 0.5 mg GGL27 or buffer alone was injected subcutaneously (s.c.) into the mice. In a corresponding E. coli infection model, bacteria were grown to early logarithmic phase (OD620˜0.4), harvested, washed in PBS, diluted in the same buffer to 1×10^8 cfu/ml, and kept on ice until injection. Hundred microliter of the bacterial suspension was injected i.p. into female Balb/c mice. Thirty minutes after the bacterial injection, 0.2 mg of GGL27 peptide or buffer alone was injected i.p. Data from two independent experiments were pooled.

[2] = 20 h after LPS injection, peptide 500 μg

GGLIKTKRKRKKQRVKIAYEEIFVKNM [GGL27, C-terminal peptide of TFPI, plasmin-generated]
binding to bacteria (E. coli): avidly bound | inflammatory changes in lungs (histochemical analysis) ([1]; 20 h after LPS injection, GGL27 500 μg): marked attenuation of inflammatory changes; also recorded: marked reduction of inflammation and vascular leakage | IFN-γ in blood [1, 2]: significant reductions | IL-6 in blood [1, 2]: significant reductions | IL-10 in blood [1, 2]: increased | MCP-1 in blood [1, 2]: significant reductions | TNF-α in blood [1, 2]: significant reductions | overall (proinflammatory) cytokine release [1, 2]: attenuates proinflammatory cytokines | survival ([1]; E. coli LPS i.p., peptide 500 μg i.p. 30 minutes after, followed 7 days): significantly increased survival | anti-endotoxic effects in vivo ([1]; mouse model of LPS-shock): anti-endotoxic effects | anti-endotoxic effects in vitro (RAW 264.7 macrophages): anti-endotoxic effects | LPS-mediated NO release (RAW 264.7 macrophages; LPS from E. coli or P. aeruginosa, peptide at indicated concentrations (FIG. 41C)): inhibits NO production; also recorded: inhibited LPS-mediated NO-release | survival (E. coli infected mice): prolongs survival; also recorded: prolongation of survival
